Data from article PMC6540285, “Evaluation of Protein Kinase Inhibitors with PLK4 Cross-Over Potential in a Pre-Clinical Model of Cancer” (International Journal of Molecular Sciences, 2019).
Like-named read-outs stand apart in the source and are kept apart here.

Assays:
[1] = biological target: T1, PLK4 (Homo sapiens, UniProt O00444); assay: LanthaScreen Eu Kinase Binding Assay, 10-point IC50; settings: SelectScreen, 10-point titration
T1 sequence (O00444 1-970): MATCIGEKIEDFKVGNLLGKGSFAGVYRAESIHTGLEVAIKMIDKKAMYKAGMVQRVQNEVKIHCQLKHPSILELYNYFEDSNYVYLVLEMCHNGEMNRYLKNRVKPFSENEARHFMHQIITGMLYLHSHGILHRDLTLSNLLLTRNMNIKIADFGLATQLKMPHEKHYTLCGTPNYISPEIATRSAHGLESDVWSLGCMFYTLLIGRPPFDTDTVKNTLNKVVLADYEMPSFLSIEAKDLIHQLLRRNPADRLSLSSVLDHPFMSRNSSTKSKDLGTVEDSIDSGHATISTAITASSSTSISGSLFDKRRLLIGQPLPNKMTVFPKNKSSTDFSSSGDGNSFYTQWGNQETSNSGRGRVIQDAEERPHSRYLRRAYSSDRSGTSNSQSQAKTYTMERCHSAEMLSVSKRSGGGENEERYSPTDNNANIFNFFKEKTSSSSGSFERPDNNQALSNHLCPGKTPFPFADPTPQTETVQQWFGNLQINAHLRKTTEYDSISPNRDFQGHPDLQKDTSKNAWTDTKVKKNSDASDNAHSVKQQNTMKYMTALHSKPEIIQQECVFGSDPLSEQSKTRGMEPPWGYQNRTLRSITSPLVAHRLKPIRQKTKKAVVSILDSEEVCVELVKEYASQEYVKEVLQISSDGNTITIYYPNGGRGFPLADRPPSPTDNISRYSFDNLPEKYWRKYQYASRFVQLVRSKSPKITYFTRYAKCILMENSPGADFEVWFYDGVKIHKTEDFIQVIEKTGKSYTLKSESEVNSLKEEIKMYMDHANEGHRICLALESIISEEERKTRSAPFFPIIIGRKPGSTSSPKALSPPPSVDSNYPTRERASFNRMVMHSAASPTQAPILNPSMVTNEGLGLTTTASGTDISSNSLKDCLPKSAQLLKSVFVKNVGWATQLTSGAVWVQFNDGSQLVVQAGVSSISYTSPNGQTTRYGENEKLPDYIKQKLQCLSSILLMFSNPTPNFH
From the text: (§1) Curves were generated from the compound concentration and the corresponding percent (%) inhibition calculated for each concentration tested. For PLK4, we used the LanthaScreen Eu Kinase Binding Assay (Thermo Fisher Scientific, Carlsbad, CA, USA) that utilizes an Alexa Fluor conjugated “tracer” and an Eu-labeled anti-tag antibody to measure binding of a compound to the kinase target. For AURKs (AURKA, AURKB and AURKC) we used the Z’ LYTE Kinase Assay (Thermo Fisher Scientific, Carlsbad, CA, USA) that determines the differential sensitivity of phosphorylated and non-phosphorylated peptide substrates to proteolytic cleavage using a FRET-based readout.

[2] = tested on: RT and MB cells; assay: Cell cycle analysis (PI flow cytometry); assay type: cell-based; settings: for polyploidy: cell lines tested, concentration not given
Procedure: Cell cycle analysis was performed by flow cytometry of cells stained with Propidium Iodide (PI) (Thermo Fisher Scientific, Carlsbad, CA, USA) according to manufacturer’s instructions. Cells treated with the top PLK4i candidates and 0.1% DMSO (control) were fixed in 80% ethanol overnight, stained with PI, and then subjected to flow cytometric analysis using a BD Fortessa instrument (BD Biosciences, San Jose, CA, USA). Data was analyzed using Modfit LT from Verity Software House (Topsham, ME, USA). All experiments were performed in triplicate.

[3] = tested on: RT and MB cells; assay: Beta-galactosidase senescence assay; assay type: cell-based; settings: all cell lines
Procedure: Senescence was evaluated using the Beta-galactosidase assay (Senescence Cells Histochemical Staining Kit CS0030 (Sigma, St Louis, MO, USA) and clonogenic recovery assay as previously described.

[4] = tested on: BT-12 cells; assay type: cell-based; settings: Homo sapiens, BT-12, read-out: MTT: IC50 of the proliferation assay
[5] = tested on: BT-16 cells; assay: PrestoBlue Cell Viability assay; assay type: cell-based
Procedure: (§2) Cell viability was assessed using the Presto Blue™ Cell Viability reagent (Thermo Fisher Scientific, Carlsbad, CA, USA) following the manufacturer’s instructions. Cells were plated in 96-well plates at the same densities described above for the proliferation assay. The fluorescence was measured after 24, 48, 72, and 96 h at concentrations ranging from 0.001 to 10 µM of the inhibitor. All assays were performed in triplicate.

[6] = tested on: DAOY cells; assay: PrestoBlue Cell Viability assay; assay type: cell-based; settings: Homo sapiens, read-out: PB: IC50 of the PrestoBlue Viability assay
Procedure: as §2

[7] = tested on: BT-12 cells; assay: PrestoBlue Cell Viability assay; assay type: cell-based
Procedure: as §2

[8] = tested on: D283 cells; assay: PrestoBlue Cell Viability assay; assay type: cell-based
Procedure: as §2

[9] = tested on: MON cells; assay: PrestoBlue Cell Viability assay; assay type: cell-based; settings: read-out: PB: IC50 of the PrestoBlue Viability assay
Procedure: as §2

[10] = tested on: BT-16 cells; assay type: cell-based; settings: BT-16, read-out: MTT: IC50 of the proliferation assay
[11] = tested on: D283 cells; assay type: cell-based
[12] = tested on: RT and MB cells; assay: Clonogenic colony formation assay; assay type: cell-based; settings: 50nM
Procedure: All cell lines were seeded at 200 cells per well in six-well plates and incubated overnight. After 24 h, the treatment medium was added and changed once a week. Cells were treated with 0.01, 0.05, 0.1, 0.2, 0.5, 1, 5, and 10 µM of PLK4i and 0.1% DMSO as control. After 14 days, the cells were washed twice with 1x PBS, fixed with formalin, and stained with Cresyl violet (ACROS Organics, Pittsburgh, PA, USA). Colonies were counted using the ImageJ software (www.imagej.nih.gov, accessed on April 21, 2017).

[13] = tested on: DAOY cells; assay type: cell-based; settings: Homo sapiens, read-out: MTT: IC50 of the proliferation assay
[14] = tested on: MON cells; assay: cells; settings: read-out: MTT: IC50 of the proliferation assay
[15] = biological target: T2, AURKA (Homo sapiens, UniProt O14965); assay: Z' LYTE Kinase Assay, 10-point IC50; assay type: biochemical; settings: SelectScreen, 10-point titration
T2 sequence (O14965 1-403): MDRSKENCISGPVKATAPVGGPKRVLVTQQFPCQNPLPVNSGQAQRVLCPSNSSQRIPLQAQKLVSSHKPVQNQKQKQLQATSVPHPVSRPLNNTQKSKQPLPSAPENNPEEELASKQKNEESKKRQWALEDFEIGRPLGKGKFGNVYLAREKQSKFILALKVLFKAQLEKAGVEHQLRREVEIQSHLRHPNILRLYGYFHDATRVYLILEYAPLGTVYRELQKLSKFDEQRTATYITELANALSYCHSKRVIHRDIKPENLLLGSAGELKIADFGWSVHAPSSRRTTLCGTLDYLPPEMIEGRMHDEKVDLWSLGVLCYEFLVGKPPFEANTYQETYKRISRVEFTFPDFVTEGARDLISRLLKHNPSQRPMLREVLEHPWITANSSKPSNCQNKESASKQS
From the text: as §1

[16] = biological target: T3, AURKC (Homo sapiens, UniProt Q9UQB9); assay: Z' LYTE Kinase Assay, 10-point IC50; assay type: biochemical; settings: SelectScreen, 10-point titration
T3 sequence (Q9UQB9 1-309): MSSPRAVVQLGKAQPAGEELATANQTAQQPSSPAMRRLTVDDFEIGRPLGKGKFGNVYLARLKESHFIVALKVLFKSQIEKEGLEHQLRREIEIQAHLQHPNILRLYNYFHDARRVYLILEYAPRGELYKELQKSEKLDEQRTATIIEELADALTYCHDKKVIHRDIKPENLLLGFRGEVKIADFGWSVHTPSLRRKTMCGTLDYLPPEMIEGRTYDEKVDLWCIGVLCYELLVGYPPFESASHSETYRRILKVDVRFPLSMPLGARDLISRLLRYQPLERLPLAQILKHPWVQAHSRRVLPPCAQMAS
From the text: as §1

[17] = biological target: AURKB (Homo sapiens, UniProt Q96GD4); assay: Z' LYTE Kinase Assay, 10-point IC50; assay type: biochemical; settings: SelectScreen, 10-point titration
AURKB, sequence (Q96GD4 whole entry): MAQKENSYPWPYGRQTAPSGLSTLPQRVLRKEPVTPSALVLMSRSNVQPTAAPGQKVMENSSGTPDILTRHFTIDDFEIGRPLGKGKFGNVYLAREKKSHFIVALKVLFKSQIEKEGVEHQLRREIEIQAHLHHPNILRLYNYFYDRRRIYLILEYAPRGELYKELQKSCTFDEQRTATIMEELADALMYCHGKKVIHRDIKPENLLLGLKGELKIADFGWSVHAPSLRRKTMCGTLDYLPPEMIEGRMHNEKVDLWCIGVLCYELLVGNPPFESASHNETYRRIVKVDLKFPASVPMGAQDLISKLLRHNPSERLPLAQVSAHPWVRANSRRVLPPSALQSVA
From the text: as §1

[18] = BT-16; read-out: PB: IC50 of the PrestoBlue Viability assay
[19] = Homo sapiens, BT-12; read-out: PB: IC50 of the PrestoBlue Viability assay
[20] = D283, read-out: PB: IC50 of the PrestoBlue Viability assay
[21] = D283, read-out: MTT: IC50 of the proliferation assay
[22] = BT-16, read-out: PB: IC50 of the PrestoBlue Viability assay
[23] = Homo sapiens, BT-12, read-out: PB: IC50 of the PrestoBlue Viability assay

Row | SMILES | IC50 [1] [nM] | cell senescence (beta-galactosidase) [3] | IC50 [4] [nM] | IC50 [5, 18] [nM] | IC50 [6] [nM] | IC50 [7, 19] [nM] | IC50 [8, 20] [nM] | IC50 [9] [nM] | IC50 [10] [nM] | IC50 [11, 21] [nM] | colony formation [12] | IC50 [13] [nM] | IC50 [14] [nM] | IC50 [15] [nM] | IC50 [16] [nM] | IC50 [17] [nM] | IC50 [5, 22] [nM] | IC50 [7, 23] [nM] | polyploidy [2] | further results
1 | COc1ccc2c(c1)/C(=C\c1ccc3c(/C=C/c4ccc(N5CCN(C)CC5)nc4)n[nH]c3c1)C(=O)N2 [CFI-400437] | 1.55 | induction of cell senescence | 61.6 | > 10000 | 768 | 604 | 6300 | 640 | 1920 | > 10000 | complete inhibition of colony formation in all cell lines | 684 | 722 | 37.2 | 4.88 | 13.1 | – | – | – | polyploidy (cell cycle analysis) ([2]; 500 nM): induction of polyploidy
2 | COc1ccc2c(c1)[C@]1(C[C@H]1c1ccc3c(/C=C/c4ccc(CN5C[C@@H](C)O[C@@H](C)C5)cc4)n[nH]c3c1)C(=O)N2 [CFI-400945, (1r,2s).2-(3-((e).4-(((cis).2,6-dimethylmorpholino)methyl)styryl). 1h.Indazol-6-yl)-5′-methoxyspiro[cyclopropane-1,3′-indolin]-2′-one] | – | – | – | – | 94 | – | 8400 | 5130 | – | – | – | – | – | – | – | – | 5830 | 8470 | – | –
3 | COc1cc2c(cc1F)C(c1ccccc1Cl)=Nc1c(n[nH]c1C)N2 [R1530] | 7.06 | – | > 10000 | > 10000 | 1850 | > 10000 | > 10000 | 3750 | 3900 | > 10000 | – | 829 | 3200 | 6.22 | 30.9 | 42.6 | – | – | – | –
4 | COc1cc(Nc2ncc3c(n2)-c2ccc(Cl)cc2C(c2c(F)cccc2OC)=NC3)ccc1C(=O)O [alisertib] | – | – | – | > 10000 | 31 | > 10000 | – | – | – | – | – | 340 | 358 | – | 9.43 | – | – | – | – | IC50 ([8]; D283; read-out: PB: IC50 of the PrestoBlue Viability assay): 9130 nM; IC50 ([9]; MON): 213 nM; IC50 ([11]; D283; read-out: MTT: IC50 of the proliferation assay): 9530 nM
5 | COc1c(Nc2cc(C)[nH]n2)nc(Sc2ccc(S(=O)(=O)Cc3cccc([N+](=O)[O-])c3F)cc2F)nc1N1CCCCC1 [centrinone B] | 8.69 | – | 5190 | > 10000 | > 10000 | 6320 | 1740 | > 10000 | 5470 | 1240 | – | > 10000 | > 10000 | 623 | 5810 | 10000 | – | – | did not induce polyploidy | –
6 | COc1c(Nc2cc(C)[nH]n2)nc(Sc2ccc(S(=O)(=O)Cc3cccc([N+](=O)[O-])c3F)cc2F)nc1N1CCOCC1 [centrinone] | – | induction of cell senescence | – | – | 4500 | – | – | 5000 | – | – | complete inhibition of colony formation in all cell lines except the MB cell line DAOY and the RT cell line BT-16 | – | – | 108 | 493 | 680 | 2220 | 3400 | did not induce polyploidy | polyploidy (cell cycle analysis) ([2]; 1µM): no polyploidy
